One block for each molecule: values may come before it. The source made the active and inactive calls. No cut-off for these calls is given here.
Tests used:
[1] = system: HL-60; assay: Induction of apoptosis in human HL-60 cells assessed as caspase 3/7 activation incubated for 48 hrs by Caspase3/7 detection reagent based assay; type: functional, cell-based; conditions: HL-60, 48 h
[2] = system: CAL-27; assay: Induction of apoptosis in human CAL-27 cells assessed as caspase 3 activation at 2 uM in presence of pretreated for 24 hrs followed by cisplatin treatment and further incubated for 18 hrs by Caspase3/7 detection reagent based assay; type: functional, cell-based; conditions: time 42.0 hrs
[3] = system: CAL-27; assay: Induction of apoptosis in human CAL-27 cells assessed as caspase 7 activation at 2 uM in presence of pretreated for 24 hrs followed by cisplatin treatment and further incubated for 18 hrs by Caspase3/7 detection reagent based assay; type: functional, cell-based; conditions: time 42.0 hrs
[4] = target: T1, Histone deacetylase (Homo sapiens) (UniProt Q13547+O15379+Q9UBN7+Q92769+Q9UQL6+Q8WUI4+Q9BY41+Q96DB2+P56524+Q9UKV0+Q969S8); assay: Inhibition of HDAC in human CAL-27 cells assessed as potentiation of cisplatin-induced cytotoxicity by measuring fold reduction in cisplatin IC50 at 2 to 3 uM pretreated for 48 hrs followed by cisplatin addition and measured after 72 hrs by MTT assay relative to cisplatin alone; type: cell-based; conditions: dose 2-3 µM, time 120.0 hrs
[5] = target: Histone deacetylase; assay: Inhibition of HDAC in human Cal27CisR cells assessed as potentiation of cisplatin-induced cytotoxicity by measuring cisplatin IC50 at 2 to 3 uM pretreated for 48 hrs followed by cisplatin addition and measured after 72 hrs by MTT assay (reference value: 3.57 uM); type: cell-based
[6] = target: T1, Histone deacetylase (Homo sapiens); assay: Inhibition of HDAC in human CAL-27 cells assessed as combination index at 0.75 uM measured in presence of 10 uM cDDP by MTT-based Chou-Talalay method; type: cell-based
[7] = target: T1, Histone deacetylase (Homo sapiens); assay: Inhibition of HDAC in human Cal27CisR cells assessed as combination index at 1 uM measured in presence of 20 uM cDDP by MTT-based Chou-Talalay method; type: cell-based
[8] = target: T1, Histone deacetylase (Homo sapiens); assay: Inhibition of HDAC in human Cal27CisR cells assessed as combination index at 1.5 uM measured in presence of 20 uM cDDP by MTT-based Chou-Talalay method; type: cell-based
[9] = target: T1, Histone deacetylase (Homo sapiens); assay: Inhibition of HDAC in human Cal27CisR cells assessed as combination index at 1.5 uM measured in presence of 50 uM cDDP by MTT-based Chou-Talalay method; type: cell-based
[10] = target: T1, Histone deacetylase (Homo sapiens); assay: Inhibition of HDAC in human Cal27CisR cells assessed as combination index at 2 uM measured in presence of 50 uM cDDP by MTT-based Chou-Talalay method; type: cell-based
[11] = target: T1, Histone deacetylase (Homo sapiens); assay: Inhibition of HDAC in human CAL-27 cells assessed as combination index at 0.2 uM measured in presence of 2 uM cDDP by MTT-based Chou-Talalay method; type: cell-based

- IC50 [1]: 214 nM
SMILES: O=C(CCCCCONC(=O)c1ccc2ccccc2n1)NO

- CI [6]: 0.51
- CI [7]: 1.42
- CI [8]: 0.55
- CI [9]: 0.38
- CI [10]: 0.42
SMILES: O=C(CCCCCONC(=O)c1nccc2ccccc12)NO
- Activity [2]: Active
- Activity [3]: Active
- Ratio IC50 [4]: 3.25
- IC50 [5]: 4840 nM

- CI [11]: 0.63
SMILES: O=C(CCCCCONC(=O)c1cc2ccccc2[nH]1)NO

Source: ChEMBL document CHEMBL4823243, “Synergistic induction of apoptosis in resistant head and neck carcinoma and leukemia by alkoxyamide-based histone deacetylase inhibitors” (Eur J Med Chem, 2021)
